“Also recorded” adds a separate entry of the source.
What was measured:
Bemisia tabaci = assay: Y-tube olfactometer preference, exposed vs intact tomato plants; format: in vivo; settings: plants exposed 24 h vs intact plants
From the text: (§1) It was studied whether the defensive activation achieved by exposure to (Z)-3-hexenyl propanoate could affect repellency and/or attraction in herbivores that attack tomatoes, the whitefly Bemisia tobaci (Gennadius) (Hemiptera: Aleyrodidae), the thrip Frankliniella occidentalis Pergande (Thysanoptera: Thripidae), the red spider Tetranychus urticae Koch (Acari: Tetranychidae) and the tomato borer, Tuta absoluta (Meyrick) (Lepidoptera: Gelechiidae), and in a natural enemy that has been used as a model organism in this crop, the parasitoid Encarsia formosa Gahan (Hymenoptera: Aphelinidae).
(§2) The last instar nymphs of B. tabaci and the pupae of E. formosa were provided by Koppert Biological Systems, S. L. (Águilas, Murcia, Spain). The recently emerged B. tabaci adults (less than 2 days old) were released into tomato plants inside 60×60×60 cm plastic cages (BugDorm-2) and placed in a climatic chamber at 25±2° C., 65±10% RH and a 14:10 h (L:D) photoperiod in IVIA. Five-day-old B. tabaci adults were used in all the experiments. In the case of E. formosa, the pupae were placed in a Petri dish 9 cm in diameter and allowed to emerge under ambient laboratory conditions (25±2° C.), with a small drop of honey as food. E. formosa females less than two days old were used in all the experiments. F. occidentalis adults came from a brood kept in captivity established in the Valencian Institute of Agrarian Research (Instituto Valenciano de Investigaciones Agrarias, IVIA) in 2010, originally from Campo de Cartagena (Murcia, Spain). The thrips brood was kept in bean pods (Phaseolus vulgaris L.; Fabales: Fabaceae) under the same conditions described above. All the F. occidentalis females used for experimentation were less than five days old. T. urticae adults were obtained from a colony established in IVIA in 2011, which initially came from clementines located in La Plana (Castelló, Spain). The mites were kept on tomato plants in a climatic chamber under the same conditions described above. T. absoluta females were obtained from colonies on tomatoes maintained in a greenhouse at IVIA at 25±4° C., 60±15% RH, and under a natural photoperiod. Newly emerged adult females less than 5 days old were used in all the assays.
(§3) To assess the preference of F. occidentalis, B. tabaci, T. urticae, T. absoluta and E. formosa for tomato plants that were previously exposed for 24 h to (Z)-3-HP relative to intact plants, a Y-shaped olfactometer was used. The plants were exposed to both volatiles as described above using the pieces of filter paper. The olfactometer (Analytical Research Systems, Gainesville, Fla.) consisted of a 2.4 cm in diameter Y-shaped glass tube with a 13.5 cm long base and two arms, each 5.75 cm long. Both side arms were connected via high-density polyethylene (HDPE) tubing to two identical glass jars (5-liter volume), each of which was connected to an air pump that produced a unidirectional humidified airflow at 150 ml/min (Pérez-Hedo et al. Journal of Pest Science 3: 543-554 (2015)).
(§4) For each species, a female was individually introduced into the inlet tube of the olfactometer and observed until she had walked at least 3 cm down one of the arms of choice or until 15 minutes had elapsed. A total of 40 valid replicates were recorded for each species for each pair of odor sources. Each individual was tested only once. […] After recording five responses, the Y-tube was rinsed with soapy water, cleaned with acetone, and allowed to dry for 5 minutes. […]

[1] = system: Frankliniella occidentalis; assay: as above; format: in vivo; settings: plants exposed 24 h vs intact plants
From the text: as §1, §2, §3, §4

Tuta absoluta = assay: as above; format: in vivo; settings: plants exposed 24 h vs intact plants
From the text: as §1, §2, §3, §4

Tetranychus urticae = assay: as above; format: in vivo; settings: plants exposed 24 h vs intact plants
From the text: as §1, §2, §3, §4

Encarsia formosa = assay: as above; format: in vivo; settings: plants exposed 24 h vs intact plants
From the text: as §1, §2, §3, §4

[2] = Emission kinetics of the dispenser (gravimetric method); format: physicochemical; settings: 4-mL LD polyethylene vial loaded with 4 ml, field conditions; slope of the fitted model
Description: Two different types of polymeric emitters were used to test the activation level that different emission levels of (Z)-3-hexenyl propionate can provide: 4-mL low-density (LD) polyethylene vial and 4-mL high-density (HD) polyethylene vial. The highest emission level (5 mg/day) was achieved through previous laboratory studies with LD dispensers loaded with 20 mg of the pure substance. The lowest emission level (0.01 mg/day) was provided by HD vials loaded with a 1:100 mixture of (Z)-3-hexenyl propionate and paraffinic oil (0.02:2; g:g). The emission kinetics of the emitters used during the experiments was controlled by studying weight loss (gravimetric method). Additional dispensers were placed in the same environmental conditions, measuring their weight weekly with a precision scale (0.0001 g). The difference in weight recorded in each period will be the emitted quantity of the substance for each type of dispenser. To obtain the mean emission level of each dispenser, the recorded weights (y) are related to the aging time (x) using a multiple regression analysis.
As mentioned earlier, 2 zones were selected in each of the greenhouses in which, on 22 Feb. 2019, a dispenser (4-ml low-density (LD) polyethylene vial) loaded with 4 ml of (Z)-3-hexenyl was hung every 20 m^2 in one of them, and the other with the same surface area was used as a control treatment. […]

[3] = system: NPR1 (salicylic acid pathway); assay: Transcriptional response of NPR1 in Carrizo citrange plants exposed to the volatile; format: in vivo; settings: intact Carrizo citrange plants exposed 24 h; n=6
Tamarixia radiata = assay: Y-tube olfactometer preference, exposed vs intact Carrizo citrange plants; format: in vivo; settings: plants exposed 24 h vs intact plants
Description: To assess the preference of D. citri females and the parasitoid T. radiata to Carrizo citrange plants that were previously exposed for 24 h to (Z)-3-HP in relation to intact plants, a Y-shaped olfactometer was used in the same way as that described in Example 1, and the plants were exposed to both volatiles as described above with the use of pieces of filter paper. A total of 40 valid replicates were recorded for each species for each pair of odor sources. Each individual was tested only once. […] After recording five responses, the Y-tube was rinsed with soapy water, cleaned with acetone, and allowed to dry for 5 minutes. The odor sources were later switched between the left and right side arms to minimize any spatial effect on choice. The two types of plants (intact and induced) were used only once to assess the response of 10 females and were then replaced with new plants. The Y-tube experiment was performed under the following environmental conditions: 25±1° C. and 60±10% RH.
The D. citri adults were obtained from a colony established at SWFREC (University of Florida), initially originating from citrus fruits located in their experimental plots. The parasitoids were collected in these experimental fields. Newly emerged adult females less than 5 days old were used in all the assays.

CC/C=C\CCOC(=O)CC [(Z)-3-hexenyl propanoate]
Response of B. tabaci females to exposed tomato plants (Bemisia tabaci): repel; also recorded: repellent | Response of F. occidentalis females to exposed tomato plants [1]: repel; also recorded: repellent | Response of T. absoluta females to exposed tomato plants (Tuta absoluta): repel; also recorded: repellent | Response of T. urticae females to exposed tomato plants (Tetranychus urticae): no preference | Response of E. formosa females to exposed tomato plants (Encarsia formosa): more attractive | Mean emission rate from the dispenser [2]: 12.2 mg/day | Transcriptional response of NPR1 compared to control [3]: significantly overexpressed | Response of Tamarixia radiata females to exposed citrus plants (Tamarixia radiata): highly attractive; also recorded: more attractive

Reference: US20230240290A1, “USE OF (Z)-3-HEXENYL ESTERS AND METHOD FOR PROTECTING PLANTS AGAINST PESTS” (UNIVERSITAT POLITÈCNICA DE VALÈNCIA, priority 2020, published 2023)
